Measured values reported in patent EP1935986B1, “Luminogenic and fluorogenic compounds and methods to detect molecules or conditions” (priority 2005, dated 2006).
Several values for one entry are separate records, joined by “and”; a condition that tells them apart may be missing. Equal entries are not always repeated. Where two headings read alike, the source gives them in different places.

Tests used:
[1] = test system: CYP3A
[2] = biological target: T1, QuantiLum Luciferase (Photinus pyralis, UniProt P08659); experiment: Scaffolds: light emission of luciferin derivatives with QuantiLum luciferase alone, + Co A, + DTT, + Co A and DTT; type: biochemical, firefly
T1 construct: purchased Promega Corporation E170

[3] = biological target: T2, CYP4F12 (Homo sapiens, UniProt Q9HCS2); experiment: Two-step luminescent P450 screen of luciferin derivatives; type: biochemical; settings: result in words
T2 construct: purchased Discovery Labware (BD/Gentest); host or cells: insect cell expression system (membrane fractions)
T2 sequence (Q9HCS2 1-524): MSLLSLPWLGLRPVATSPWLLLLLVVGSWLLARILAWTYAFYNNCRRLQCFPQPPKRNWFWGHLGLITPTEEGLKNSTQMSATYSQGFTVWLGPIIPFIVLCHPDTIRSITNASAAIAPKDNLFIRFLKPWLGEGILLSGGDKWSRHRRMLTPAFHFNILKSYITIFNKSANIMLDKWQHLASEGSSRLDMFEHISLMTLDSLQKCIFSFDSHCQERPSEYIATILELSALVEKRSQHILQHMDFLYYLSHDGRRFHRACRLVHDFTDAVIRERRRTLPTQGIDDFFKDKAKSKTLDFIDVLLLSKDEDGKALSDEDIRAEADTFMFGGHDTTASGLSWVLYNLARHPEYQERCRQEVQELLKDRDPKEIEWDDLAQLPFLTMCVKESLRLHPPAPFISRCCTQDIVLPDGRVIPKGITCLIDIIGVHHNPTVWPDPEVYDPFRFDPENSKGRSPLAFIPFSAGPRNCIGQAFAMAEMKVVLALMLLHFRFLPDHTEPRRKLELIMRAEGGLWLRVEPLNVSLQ
Experimental: P450s are Supersomes™ purchased from Discovery Labware (BD/Gentest). […] HLM is human liver microsomes.
1X substrate concentration: 50 µM.

[4] = biological target: T3, CYP3A7 (Homo sapiens, UniProt P24462); experiment: as above; settings: result in words
[5] = biological target: T4, CYP3A4 (Homo sapiens, UniProt P08684); experiment: as above; settings: result in words
[6] = biological target: T2, CYP4F12; settings: previously shown (Cali, 2005b); cited from earlier work
[7] = test system: luciferase; experiment: No-enzyme control: activity of luciferase towards the luciferin derivative (background luminescence)
[8] = test system: equine alcohol dehydrogenase; experiment: Effect of inhibitors on the conversion of luciferol by equine alcohol dehydrogenase; type: biochemical; settings: luciferol + equine ADH + NAD+ with 10 µl inhibitor solution, 37°C, 30 minutes; duplicate reactions #1, #2 (controls 1023, 1087)
Experimental: Trichloroethanol solution: A 0.48 ml sample of 2,2,2, trichloroethanol (Aldrich T5480-5) was dissolved in water.
Duplicate reactions were assembled (see Table 19).
Reactions were initiated by addition of 1.5 µl of luciferol solution. Upon addition of the luciferol solution, the reactions were mixed and placed at 37°C.

[9] = biological target: T3, CYP3A7
[10] = biological target: T4, CYP3A4

T1 sequence (P08659 whole entry): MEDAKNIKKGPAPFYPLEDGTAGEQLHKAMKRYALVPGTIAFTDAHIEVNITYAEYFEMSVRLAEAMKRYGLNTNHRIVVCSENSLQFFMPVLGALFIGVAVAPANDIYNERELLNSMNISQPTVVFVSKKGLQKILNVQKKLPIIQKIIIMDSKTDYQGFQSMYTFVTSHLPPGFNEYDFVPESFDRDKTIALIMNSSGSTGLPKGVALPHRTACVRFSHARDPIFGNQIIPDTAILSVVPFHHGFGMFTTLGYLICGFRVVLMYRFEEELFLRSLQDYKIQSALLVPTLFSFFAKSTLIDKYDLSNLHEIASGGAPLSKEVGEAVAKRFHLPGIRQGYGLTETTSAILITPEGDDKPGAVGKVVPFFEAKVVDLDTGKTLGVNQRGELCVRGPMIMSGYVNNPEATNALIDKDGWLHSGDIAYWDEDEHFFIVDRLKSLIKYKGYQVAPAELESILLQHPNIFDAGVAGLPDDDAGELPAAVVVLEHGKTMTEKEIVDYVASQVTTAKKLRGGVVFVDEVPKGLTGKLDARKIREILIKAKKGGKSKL
T4 sequence (P08684 2-503 limits assumed): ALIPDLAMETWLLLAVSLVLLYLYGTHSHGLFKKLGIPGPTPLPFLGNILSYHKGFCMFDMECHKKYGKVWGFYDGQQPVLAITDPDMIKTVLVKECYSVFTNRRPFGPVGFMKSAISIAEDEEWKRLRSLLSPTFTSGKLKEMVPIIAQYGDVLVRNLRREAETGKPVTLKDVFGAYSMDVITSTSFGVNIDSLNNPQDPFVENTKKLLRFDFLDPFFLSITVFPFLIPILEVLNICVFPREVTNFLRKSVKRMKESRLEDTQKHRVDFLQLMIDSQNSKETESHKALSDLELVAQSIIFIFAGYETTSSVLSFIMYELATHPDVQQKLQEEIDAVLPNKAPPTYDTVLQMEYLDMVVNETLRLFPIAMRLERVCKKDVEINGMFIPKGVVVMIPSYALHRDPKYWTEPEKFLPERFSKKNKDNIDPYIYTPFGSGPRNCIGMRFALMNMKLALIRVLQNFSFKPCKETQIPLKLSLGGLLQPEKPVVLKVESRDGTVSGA
T3 sequence (P24462 whole entry): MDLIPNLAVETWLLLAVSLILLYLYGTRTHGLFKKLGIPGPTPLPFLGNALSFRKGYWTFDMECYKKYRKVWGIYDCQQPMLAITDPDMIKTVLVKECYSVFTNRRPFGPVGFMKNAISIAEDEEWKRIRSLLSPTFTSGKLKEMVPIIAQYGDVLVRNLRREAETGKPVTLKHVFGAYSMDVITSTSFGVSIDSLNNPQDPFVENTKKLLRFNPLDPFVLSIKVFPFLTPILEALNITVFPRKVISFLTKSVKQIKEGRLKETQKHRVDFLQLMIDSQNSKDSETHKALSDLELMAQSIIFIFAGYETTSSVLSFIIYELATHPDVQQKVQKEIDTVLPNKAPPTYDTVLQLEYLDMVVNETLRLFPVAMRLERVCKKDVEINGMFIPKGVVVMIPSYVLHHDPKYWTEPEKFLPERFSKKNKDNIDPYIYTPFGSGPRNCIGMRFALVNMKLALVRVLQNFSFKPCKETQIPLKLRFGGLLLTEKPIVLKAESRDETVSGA

Molecule: CC(=O)N1CCN(c2ccc(OCC3COC(Cn4ccnc4)(c4ccc(Cl)cc4Cl)O3)cc2)CC1 (centres unmarked) [ketoconazole]
- CYP3A-dependent luminescence in human hepatocytes [1]: inhibition by ketoconazole of both basal and rifampicin-induced activity

Molecule: O=C(O)[C@H]1CSC(c2nc3ccc(OCc4ccccc4)cc3s2)=N1 [luciferin 6-benzyl ether, reference compound]
- light emission values ([2]; Derivative Conc. 1.07, Alone): 29234
- light emission values ([2]; Derivative Conc. 1.07, Co A): 50144
- light emission values ([2]; Derivative Conc. 1.07, Co A + DTT): 51799
- light emission values ([2]; Derivative Conc. 1.07, DTT): 57066
- light emission values ([2]; Derivative Conc. 3.13, Alone): 32994
- light emission values ([2]; Derivative Conc. 3.13, Co A): 55778
- light emission values ([2]; Derivative Conc. 3.13, Co A + DTT): 80626
- light emission values ([2]; Derivative Conc. 3.13, DTT): 86445
- light emission values ([2]; Derivative Conc. 6.25, Alone): 38838
- light emission values ([2]; Derivative Conc. 6.25, Co A): 58288
- light emission values ([2]; Derivative Conc. 6.25, Co A + DTT): 105912
- light emission values ([2]; Derivative Conc. 6.25, DTT): 100044
- light emission values ([2]; Derivative Conc. 12.5, Alone): 40486
- light emission values ([2]; Derivative Conc. 12.5, Co A): 57996
- light emission values ([2]; Derivative Conc. 12.5, Co A + DTT): 97371
- light emission values ([2]; Derivative Conc. 12.5, DTT): 94861
- light emission values ([2]; Derivative Conc. 25, Alone): 40093
- light emission values ([2]; Derivative Conc. 25, Co A): 53097
- light emission values ([2]; Derivative Conc. 25, Co A + DTT): 90306
- light emission values ([2]; Derivative Conc. 25, DTT): 84034
- light emission values ([2]; Derivative Conc. 50, Alone): 30609
- light emission values ([2]; Derivative Conc. 50, Co A): 38349
- light emission values ([2]; Derivative Conc. 50, Co A + DTT): 98716
- light emission values ([2]; Derivative Conc. 50, DTT): 80001
- light emission values ([2]; Derivative Conc. 100, Alone): 31581
- light emission values ([2]; Derivative Conc. 100, Co A): 33199
- light emission values ([2]; Derivative Conc. 100, Co A + DTT): 64460
- light emission values ([2]; Derivative Conc. 100, DTT): 54592
- P450 activity / cross reactivity with the derivative as substrate [3]: cross reacted
- P450 activity / selectivity with the derivative as substrate [4]: cross reacted significantly
- competition at the substrate binding sites on CYP3A4 [5]: only competitive at 1 site
- reaction with CYP4F12 [6]: react also with CYP4F12
- background luminescence ([7]; on a BMG luminometer, minus P450): about 5000 RLU
- background luminescence (minus P450 control samples) ([7]; result in words): high background luminescence

Molecule: OCC(Cl)(Cl)Cl [trichloroethanol, 2,2,2, trichloroethanol]
- Relative Light Units [8]: 524.8 and 342.1

Molecule: quinolylluciferin 6-benzyl ether
- P450 activity / selectivity with the derivative as substrate [9]: preferred substrate
- P450 activity / selectivity with the derivative as substrate [10]: to a lesser degree a substrate
